Experimental data from PubChem BioAssay (NCI).
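The compound was tested at five concentrations on cells cultured in 96-well plates, with a 48-hour exposure period. GI50 = concentration required for 50% inhibition of growth. At the TGI there is no net growth.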

Tested on: MDA-MB-468 breast
Assay: NCI anticancer screen, dose series, 48 h

Work on `CCN(CC)CCNC(=O)C(Cl)=C1C(Cl)=C(Cl)C(Cl)=C1Cl` yielded a GI50 of 2.08 µM and a TGI of 7.63 µM.
In the case of `Nc1nc(Cl)nc2c1ncn2C1OC(CO)C(O)C1O` (stereo not given), the GI50 is reported as over 100 µM and the TGI is reported as over 100 µM.
`O=C(Nc1ccc(Cl)cc1)c1cc2ccccc2cc1OP(=O)(O)O` gave a GI50 of 4.28 µM and a TGI of 29.3 µM.
`COc1ccc(/C=C/C(=O)c2ccccc2)cc1OC` was tested, and the GI50 was 5.25 µM and the TGI was 18.6 µM.
`COC1=CC(c2ccc[nH]2)=N/C1=C\c1[nH]c(C)c(C)c1CCC(=O)OCc1ccccc1` showed a GI50 of 1.51 µM and a TGI of 5.31 µM.
`Clc1ccc(Nc2ncnc3c2sc2ncccc23)c(Cl)c1` was tested, and the GI50 was 0.0548 µM and the TGI was 73.8 µM.
`CNC(=O)c1cc(Oc2ccc3nc(NC(=O)Nc4cc(C(F)(F)F)cc(C(F)(F)F)c4)sc3c2)ccn1` gave a GI50 of 0.399 µM and a TGI of 1.75 µM.
`COc1cc(OC)c(/C=C/C(=O)c2c(O)cc(OC)c(C3CCN(C)CC3)c2OC)c(OC)c1` was tested, and the GI50 was 1.54 µM and the TGI was 3.03 µM.
Work on `O=C1c2ccccc2-c2ccccc2C1(Cl)Cl` yielded a GI50 of 1.74 µM and a TGI of 3.3 µM.
In the case of `N/C(=N\C(N)=N\c1nc2ccccc2s1)c1ccnc(Br)c1`, the GI50 is reported as 17.5 µM and the TGI is reported as over 100 µM.
Compound `O=[N+]([O-])c1cccc([I+]c2ccccc2)c1` has a GI50 of 2.1 µM and a TGI of 17.4 µM.
Work on `CCOC(=O)Nc1cc(-c2ccc(C)c(NS(C)(=O)=O)c2)nn2c(C)nnc12` yielded a GI50 of 0.557 µM and a TGI of 4.21 µM.
In the case of `CS(=O)(=O)c1ccc(-c2cnc(NCc3ccco3)n3cnnc23)cc1`, the GI50 is reported as 27 µM and the TGI is reported as over 100 µM.
`Cc1cc2nc3c4cc([N+](=O)[O-])ccc4n(CCN(C)C)c3nc2cc1C` gave a GI50 of 0.374 µM and a TGI of 1.38 µM.
Work on `COc1ccc(Nc2ncccc2C(=O)NCc2cn(Cc3cccc(Oc4ccccc4)c3)nn2)c(OC)c1` yielded a GI50 of 0.77 µM.
`Oc1[nH]c2ccccc2c1/C=c1/ccc2c(c1)N=C(c1cc(F)cc(F)c1)N=2` was tested, and the GI50 was 2.62 µM and the TGI was 8.64 µM.
Compound `Cc1ccnc(NC(c2ccccc2)c2ccc3cccnc3c2O)c1` (stereo not given) has a GI50 of 3.25 µM and a TGI of 14.3 µM.
`Cc1ccc(S(=O)(=O)NCCCNc2nc(Nc3ccc(N4CCN(C)CC4)cc3)nc3ccsc23)cc1` was tested, and the GI50 was 7.43 µM and the TGI was 20.6 µM.
Work on `O=C1Nc2c(ccc(Cl)c2Cl)/C1=C\c1cc(C(F)(F)F)cc(C(F)(F)F)c1` yielded a GI50 of 1.51 µM and a TGI of 5.6 µM.
Work on `Cn1cc(-c2ccc3nnc(C(F)(F)c4ccc5ncccc5c4)n3n2)cn1` yielded a GI50 of 22.5 µM and a TGI of over 100 µM.
`COc1ccc2c(c1)C(=O)c1c-2c(OCCN2CCCCC2)nc2ccc(OC)cc12` gave a GI50 of 0.392 µM and a TGI of 2.49 µM.
`CCN(CC)CC(O)c1cc(-c2ccc(Cl)cc2)nc2cc(Cl)ccc12` (stereo not given) gave a GI50 of 1.92 µM and a TGI of 3.53 µM.
`Cc1nc2cc(Nc3nc(Nc4ccc(F)cc4)nc(N4CCCC4)n3)ccc2n1Cc1ccccc1` was tested, and the GI50 was 1.61 µM and the TGI was 3.48 µM.
`C=C(C)[C@@H]1CC[C@]2(C(=O)N3CCN(C)CC3)CC[C@]3(C)[C@H](CC[C@@H]4[C@@]5(C)CC[C@H](O)C(C)(C)[C@@H]5CC[C@]43C)[C@@H]12` was tested, and the GI50 was 1.82 µM and the TGI was 3.63 µM.
`COc1cccc(/C=C2\CCc3ccccc3C2=O)c1` gave a GI50 of 12.6 µM and a TGI of 29.3 µM.
Work on `COC(=O)C[Se]C(=O)Cc1c(C)n(C(=O)c2ccc(Cl)cc2)c2ccc(OC)cc12` yielded a GI50 of 1.47 µM and a TGI of 4 µM.
For `CNC(=O)c1cc(Oc2cccc3nc(NC(=O)Nc4ccc(F)cc4F)ccc23)ccn1`, the GI50 was 1.83 µM and the TGI was over 50 µM.
Work on `O=C(NC(Cc1ccccc1)C(=O)CCl)OCc1ccccc1` (stereo not given) yielded a GI50 of 3.69 µM and a TGI of 15.4 µM.
